# Results as given in patent US20230144838A1, “THERANOSTIC SYSTEM FOR DIRECTED DIFFUSION OF THERAPEUTIC AND IMAGING AGENTS TO CANCER CELLS” (UNIVERSITAT POLITÈCNICA DE VALÈNCIA, priority 2019, published 2023).
# Tested on: LNCaP (with membrane receptors FOLH1)
# Experiment: In vitro cytotoxic activity by MTT assay, LNCaP cells
# Assay type: cell-based
# Conditions: LNCaP human prostate adenocarcinoma cells, 72 hours, DTX equivalent concentration, n = 3, read-out: IC50 (mean ± SD)
# Method: The in vitro cytotoxic activity of the theranostic system was determined by the 3-[4,5-dimethylthiazol-2-yl]-2,5-diphenyltetrazolium (MTT) bromide test. In these assays, the proliferation of living cells is determined via mitochondrial dehydrogenase activity: viable mitochondria reduce MTT by generating MTT-formazan crystals that are quantifiable by visible spectrophotometry.
# Two types of human prostate adenocarcinoma cell lines were used for these assays: LNCaP (with membrane receptors FOLH1, PROTEIN DATA BANK ID FOLH1: 1Z8L) and PC3 (without FOLH1 receptors).
# The cells are seeded in 96-well plates at a rate of 10,000 cells/well in both cases, 24 h before incorporating the nanoparticles. Aliquots of 3 mg ml-^1 of DTX in DMSO are prepared and kept at −20° C. When required, an aliquot is thawed, and working aliquots (100 μg/ml by dilution in enriched RPMI medium) are prepared. Alternatively, aliquots of 100 μg/mL DTX are prepared in enriched RPMI medium and kept at −20° C. until required. […]
# At the end of the incubation period, 10 μl (5 mg/ml) of the MTT solution are added to each well and 4 hours later the formazan crystals are dissolved with isopropanol, and the absorbance at 570 nm is measured. The percentage of cell survival relative to untreated cells is determined and the values of IC50 from the curve DTX concentration-(%) live cells are calculated.
smiles,measurement,value
"CC(=O)O[C@@]12CO[C@@H]1C[C@H](O)[C@@]1(C)C(=O)[C@H](O)C3=C(C)[C@@H](OC(=O)[C@H](O)[C@@H](NC(=O)OC(C)(C)C)c4ccccc4)C[C@@](O)([C@@H](OC(=O)c4ccccc4)[C@H]21)C3(C)C [DTX, docetaxel]",IC50,0.8 ± 0.2 µg/mL
